This is an account of results in ChEMBL document CHEMBL3392978 (Eur J Med Chem, 2015).

What all share (format): functional
Experiment [1] relates to SW480. Description: Growth inhibition of human SW480 cells at 10 uM after 72 hrs by MTT assay. The conditions noted are these: SW480, 72 h, read-out: GI.
Experiment [2] has as its system HepG2. Description: Growth inhibition of human HepG2 cells at 10 uM after 72 hrs by MTT assay. The conditions noted are these: HepG2, 72 h, read-out: GI.
The subject of experiment [3] is NCI-H522. Description: Growth inhibition of human NCI-H522 cells at 10 uM after 72 hrs by MTT assay. The conditions noted are these: NCI-H522, 72 h, read-out: GI.
Experiment [4] concerns MDA-MB-453. Description: Growth inhibition of human MDA-MB-453 cells at 10 uM after 72 hrs by MTT assay. As to conditions: MDA-MB-453, 72 h, read-out: GI.
The test system of experiment [5] is A-375. Description: Growth inhibition of human A375 cells at 10 uM after 72 hrs by MTT assay. The conditions noted are these: A-375, 72 h, read-out: GI.
The subject of experiment [6] is MCF7. Description: Growth inhibition of human MCF7 cells at 10 uM after 72 hrs by MTT assay. As to conditions: MCF7, 72 h, read-out: GI.

For `Cc1ccc(NC(=O)c2cccc(F)c2)cc1C(=O)Nc1ccc(-c2ncc[nH]2)nc1`, the inhibition of growth at 10 µM was 10.4% in experiment [1]; 2.1% in experiment [2]; 8.5% in experiment [3]; 14.9% in experiment [4]; 27.9% in experiment [5]; 29.2% in experiment [6].

As for `Cc1ccc(NC(=O)c2cccc(Br)c2)cc1C(=O)Nc1ccc(-c2ncc[nH]2)nc1`, the inhibition of growth at 10 µM in experiment [1] was 24.4%; in experiment [2], 6.4%; in experiment [3] it was 10.4%; in experiment [4], 20.2%; in experiment [5] it was 31.9%; in experiment [6], 33.2%.

As for `Cc1cc(C(=O)Nc2ccc(C)c(C(=O)Nc3ccc(-c4ncc[nH]4)nc3)c2)ccc1Cl`, the inhibition of growth at 10 µM in experiment [1] stood at 21.4%; in experiment [2], 32%; in experiment [3], 12.6%; in experiment [4] it was 27.7%; in experiment [5], 37.3%; in experiment [6], 36.2%.

On to `Cc1ccc(NC(=O)c2ccc(Br)cc2)cc1C(=O)Nc1ccc(-c2ncc[nH]2)nc1`, for which the inhibition of growth at 10 µM in experiment [1] worked out at 23.9%; in experiment [2] it was 14.8%; in experiment [3], 13.5%; in experiment [4], 18.9%; in experiment [5] it was 30.1%; in experiment [6], 31.9%.

In the case of `O=C(Nc1ccc(Cl)cc1)c1ccc(Cl)c(C(=O)Nc2ccc(-c3ncc[nH]3)nc2)c1`, the inhibition of growth at 10 µM in experiment [1] was 12.7%; in experiment [2], 18.9%; in experiment [3], -20%; in experiment [4] it was 16.5%; in experiment [5], 21.9%; in experiment [6], 19.4%.

Take `O=C(Nc1ccc(Cl)c(C(=O)Nc2ccc(-c3ncc[nH]3)nc2)c1)c1ccc(C(F)(F)F)cc1`: the inhibition of growth at 10 µM was 15.1% in experiment [1]; 44% in experiment [2]; -22.9% in experiment [3]; 48.4% in experiment [4]; 47.6% in experiment [5]; 35.3% in experiment [6].

`O=C(Nc1ccc(Cl)c(C(=O)Nc2ccc(-c3ncc[nH]3)nc2)c1)c1ccc(F)cc1`: the inhibition of growth at 10 µM in experiment [1] is 14.9%; in experiment [2], -1.3%; in experiment [3], -8.8%; in experiment [4], 21.5%; in experiment [5], 30.1%; in experiment [6], 33.4%.

Turning to `O=C(Nc1cccc(Cl)c1)c1ccc(Cl)c(C(=O)Nc2ccc(-c3ncc[nH]3)nc2)c1`, the inhibition of growth at 10 µM in experiment [1] is 5.8%; in experiment [2] it was 19.4%; in experiment [3], -16.2%; in experiment [4] it was 11.6%; in experiment [5], 26.1%; in experiment [6], 26%.

In the case of `Cc1ccc(C(=O)Nc2ccc(Cl)c(C(=O)Nc3ccc(-c4ncc[nH]4)nc3)c2)cc1`, the inhibition of growth at 10 µM in experiment [1] was 21.1%; in experiment [2] it was -2.7%; in experiment [3] it was 17.2%; in experiment [4], 23.2%; in experiment [5] it was 30.1%; in experiment [6], 22.4%.

For the compound `Cc1ccc(NC(=O)c2ccc(C(F)(F)F)cc2)cc1C(=O)Nc1ccc(-c2ncc[nH]2)nc1`, the inhibition of growth at 10 µM in experiment [1] came out at 28.1%; in experiment [2], 25.7%; in experiment [3], 16.5%; in experiment [4] it was 26%; in experiment [5], 40.4%; in experiment [6], 36.4%.

For `Cc1ccc(NC(=O)c2cccc([N+](=O)[O-])c2)cc1C(=O)Nc1ccc(-c2ncc[nH]2)nc1`, the inhibition of growth at 10 µM in experiment [1] was determined as 16.7%; in experiment [2], 11.1%; in experiment [3] it was 8.9%; in experiment [4], 22.3%; in experiment [5] it was 17.6%; in experiment [6], 34.9%.

For the compound `O=C(Nc1ccc(Cl)c(C(=O)Nc2ccc(-c3ncc[nH]3)nc2)c1)c1cccc(Cl)c1`, the inhibition of growth at 10 µM in experiment [1] is 15.5%; in experiment [2], 2.9%; in experiment [3], -1.8%; in experiment [4] it was 10.7%; in experiment [5], 32.4%; in experiment [6], 29.8%.

For the compound `Cc1ccc(NC(=O)c2ccc(Cl)c(Cl)c2)cc1C(=O)Nc1ccc(-c2ncc[nH]2)nc1`, the inhibition of growth at 10 µM was 13.7% in experiment [1]; 5.5% in experiment [2]; 2% in experiment [3]; 24.4% in experiment [4]; 30.6% in experiment [5]; 33% in experiment [6].

Turning to `Cc1ccc(NC(=O)c2ccc(Cl)cc2)cc1C(=O)Nc1ccc(-c2ncc[nH]2)nc1`, the inhibition of growth at 10 µM in experiment [1] came out at 17.7%; in experiment [2] it was 12.1%; in experiment [3] it was 6.4%; in experiment [4] it was 21.4%; in experiment [5], 23.9%; in experiment [6] it was 32.4%.

Consider `O=C(Nc1cccc(C(F)(F)F)c1)c1ccc(Cl)c(C(=O)Nc2ccc(-c3ncc[nH]3)nc2)c1`, for which the inhibition of growth at 10 µM was 18.9% in experiment [1]; 29.9% in experiment [2]; -18% in experiment [3]; 19.7% in experiment [4]; 44.1% in experiment [5]; 25.9% in experiment [6].

Consider `O=C(Nc1ccc(Cl)c(C(=O)Nc2ccc(-c3ncc[nH]3)nc2)c1)c1ccc(Cl)cc1`, for which the inhibition of growth at 10 µM was 13.4% in experiment [1]; 38.9% in experiment [2]; -1.9% in experiment [3]; 36.4% in experiment [4]; 29.6% in experiment [5]; 31.4% in experiment [6].

Regarding `COc1cccc(C(=O)Nc2ccc(Cl)c(C(=O)Nc3ccc(-c4ncc[nH]4)nc3)c2)c1`, the inhibition of growth at 10 µM in experiment [1] is 17.6%; in experiment [2], 2.6%; in experiment [3], -2.9%; in experiment [4], 19.4%; in experiment [5] it was 34.9%; in experiment [6], 29.6%.

Turning to `Cc1ccc(C(=O)Nc2ccc(C)c(C(=O)Nc3ccc(-c4ncc[nH]4)nc3)c2)cc1`, the inhibition of growth at 10 µM is 26.3% in experiment [1]; 17.8% in experiment [2]; 31.8% in experiment [3]; 16.5% in experiment [4]; 37.6% in experiment [5]; 36.5% in experiment [6].

For `Cc1cccc(C(=O)Nc2ccc(Cl)c(C(=O)Nc3ccc(-c4ncc[nH]4)nc3)c2)c1`, the inhibition of growth at 10 µM amounted to 30.8% in experiment [1]; 24.8% in experiment [2]; 5.3% in experiment [3]; 23.6% in experiment [4]; 40.8% in experiment [5]; 34% in experiment [6].
